The results in this text go back to patent US8153791B2, “Substituted pyrimidinyl oxime kinase inhibitors” (Janssen Pharmaceutica N.V., priority 2005, dated 2012).

For orientation: IC50 means the concentration that gives 50% inhibition.

Assay [1] deals with A431 epidermoid carcinoma. As to the kind of experiment: In vitro cell proliferation inhibition, A431. The class given is cell-based. Conditions: Homo sapiens, A-431; A431 cells, 14C-thymidine incorporation; read-out: IC50 A431. An excerpt: (§1) The ability of a test compound to inhibit unregulated in vitro cell proliferation may be determined by measuring incorporation of ^14C-labelled thymidine into newly synthesized DNA within cell lines derived from carcinomas originating from several tissues. Accordingly, the effect of a test compound on proliferation of cells with a variety of phenotypes may be determined.
(§2) Carcinoma cell lines used include the HeLa cervical adenocarcinoma from the American Type Culture Collection (ATCC Cat. #CCL2), SK-OV-3 ovarian carcinoma (ATCC Cat. #HTB-77), MCF-7 breast carcinoma (ATCC Cat. #HTB-22), BT474 breast carcinoma (ATCC Cat. #HTB-20), SKBR3 breast carcinoma (ATCC Cat. #HTB-30), A431 epidermoid carcinoma (ATCC Cat. #CRL-1555) and NCI-N87 gastric carcinoma (ATCC Cat. #CRL-5822).
(§3) The carcinoma cells are trypsinized and counted. The cells (3000-8000 count) are added to each well of a 96-well CytoStar tissue culture treated scintillating microplate (Amersham #RPNQ0160) in complete medium (100 μL) and the plate is then incubated in complete medium for 24 hrs at 37° C. in an inert atmosphere containing 5% CO2.
(§4) Test compound (1 μL) in 100% DMSO is added to the plate test-wells with DMSO only added to control-wells. The plate is incubated in complete medium for a second 24 hr period at 37° C. in an atmosphere containing 5% CO2.
(§5) An aliquot of a solution of Methyl ^14C-thymidine (56 mC/mmol) (NEN #NEC568 or Amersham #CFA532) and complete medium (20 μL to provide 0.2 μCi/well) is then added to each well and the plate is incubated for a third 24 hr period at 37° C. in an atmosphere containing 5% CO2.
(§6) The plate contents are then discarded, the plate is washed twice with PBS (200 μL) and then PBS (200 μL) is added to each well. The plate is sealed and the degree of methyl ^14C-thymidine incorporation is quantified on a Packard Top Count.
(§7) Cell proliferation of the Hela cell line was measured using the ATP-Lite method as described in the ATP Lite Kit (Perkin-Elmer Kit Number 6106941) or the C^14 method as described above. Cell proliferation of the other cell lines was measured using the C^14 method.
(§8) The term “NT” means that the compound indicated was not tested in a particular cell line. The lack of such testing is not intended to imply a belief that the compound is not otherwise active in a particular cell line or any other cell line not tested.
A general note: Incorporation of labelled thymidine or its analogues reports DNA synthesis.

In another assay the test system is MCF-7 breast carcinoma. As to the kind of experiment: In vitro cell proliferation inhibition, MCF-7. Format: cell-based. Particulars: Homo sapiens, MCF7; MCF-7 cells, 14C-thymidine incorporation.
Text: as §1, §2, §3, §4, §5, §6, §7, §8

The target of the next assay is T1, HER-2 (Homo sapiens, UniProt P04626).
T1 construct: purchased Proqinase (Freiburg, Germany)
As to the kind of experiment: HER-2 Kinase Assay.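 Also: HER2 kinase reaction read by scintillation counting, inhibition scaled between maximum and minimum signals set on each plate, IC50 from inhibition against log concentration.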 Format: biochemical. Particulars: read-out: HER2 IC50.

A further assay concerns BT474 breast carcinoma. As to the kind of experiment: In vitro cell proliferation inhibition, BT474. The class given is cell-based. Particulars: Homo sapiens, BT-474; BT474 cells, 14C-thymidine incorporation; read-out: IC50 BT474.
Text: as §1, §2, §3, §4, §5, §6, §7, §8

Assay [2] has as its system SK-OV-3 ovarian carcinoma. As to the kind of experiment: In vitro cell proliferation inhibition, SK-OV-3. Format: cell-based. Conditions: Homo sapiens; SK-OV-3 cells, 14C-thymidine incorporation.
Text: as §1, §2, §3, §4, §5, §6, §7, §8

In a further assay the test system is SKBR3 breast carcinoma. As to the kind of experiment: In vitro cell proliferation inhibition, SKBR3. Format: cell-based. Conditions: Homo sapiens, SK-BR-3; SKBR3 cells, 14C-thymidine incorporation; read-out: IC50 SKBR3.
Text: as §1, §2, §3, §4, §5, §6, §7, §8

The next assay concerns the target T2, EGFR (Homo sapiens, UniProt P00533).
T2 construct: The intracellular portion of EGFR started at nucleotide 2189 (corresponding to amino acid 667) and ended at the termination codon; made in house; host or cells: Sf9 insect cells (baculovirus)
As to the kind of experiment: EGFR Kinase Assay.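 Also: recombinant GST-tagged EGFR expressed in Sf9 cells, phosphorylating biotinylated polyGluTyr with γ-33P ATP on Streptavidin Flashplates, 1 h at 30 °C, scintillation counting, inhibition relative to plate maximum and minimum signals.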 The class given is biochemical.

Assay [3] has as its system HeLa cervical adenocarcinoma. Nature of the assay: In vitro cell proliferation inhibition, HeLa. The class given is cell-based. Conditions: Homo sapiens; HeLa cell line; ATP-Lite method or C14 thymidine method; read-out: HeLa IC50.
Assay [4] has as its system NCI-N87 gastric carcinoma. As to the kind of experiment: In vitro cell proliferation inhibition, NCI-N87. The class given is cell-based. Particulars: Homo sapiens, NCI-N87; N87 cells, 14C-thymidine incorporation; read-out: IC50 N87.
Text: as §1, §2, §3, §4, §5, §6, §7, §8

The subject of assay [5] is A431 epidermoid carcinoma cells. As to the kind of experiment: A431 Human Tumor Xenograft Model. Format: in vivo, nu/nu mice. Conditions: treatment groups 5-10, 100 mg/kg oral once daily for 30 days. An excerpt: The A431 epidermoid carcinoma cell line overexpresses EGFR, activating signaling pathways responsible for driving the proliferation, invasion and survival of cancer cells and forming tumors in nude mice (Giard D J, Aaronson S A, Todaro G J, Arnstein P, Kersey J H, Dosik H, Parks W P, In vitro cultivation of human tumors: establishment of cell lines derived from a series of solid tumors, J. Natl. Cancer Inst., 1973, 51, 1417-1423; and, Kawamoto T, Sato J D, Le A, Polikoff J, Sato G H, Mendelsohn J, Growth stimulation of A431 cells by epidermal growth factor: identification of high-affinity receptors for epidermal growth factor by an anti-receptor monoclonal antibody, Proc. Natl. Acad. Sci. USA, 1983, 80, 1337-1341).
Female nu/nu mice (Charles River; 8 to 9 weeks of age) were implanted subcutaneously in the flank with 4×10^6 A431 epidermoid carcinoma cells (obtained from the American Type Culture Collection, ATCC Cat. #CRL-1555). Animals were weighed twice weekly during the study and examined frequently.
Tumor size was monitored twice weekly and then daily as the neoplasms reached the target weight range (about 75 mg). Animals were pair-matched when tumors were in the 62 to 126 mg range (group mean tumor size: 70 to 74 mg). Estimated tumor weight was calculated using the formula of Example 4.
A test compound was orally administered daily in the test treatment group after the tumor reached the target weight. For treatment groups 1 and 2, each dose of test compound was administered once daily for 25 days. For treatment group 3, each dose of test compound was administered twice daily for 25 days. For treatment group 4, the test compound was administered twice daily for 30 days. For treatment group 5-10, the test compound was administered once daily for 30 days.
(§9) Statistical significance was evaluated by comparing the vehicle group to the test group using a two tailed Students t test. The term “NC” means that the P value for the treatment group indicated was not calculated. The lack of such calculation is not intended to imply a belief that the activity of the compound is not otherwise statistically significant in this particular cell line or in any other cell line not tested.

The test system of assay [6] is N87 gastric carcinoma cells. Nature of the assay: N87 Human Tumor Xenograft Model. Format: in vivo, nu/nu mice. Particulars: treatment groups 5-10, 100 mg/kg oral once daily for 30 days.
Text: The N87 gastric carcinoma cell line overexpresses HER-2 as a result of gene amplification and forms tumors in nude mice (Kasprzyk P G, Song S U, Di Fiore P P, King C R, Therapy of an animal model of human gastric cancer using a combination of anti-erbB-2 monoclonal antibodies, Cancer Res., 1992, 52, 2771-2776).
Female nu/nu mice (Charles River; 8 to 9 weeks of age) were implanted subcutaneously with from 3×10^6 to 5×10^6 N87 gastric carcinoma cells (obtained from the American Type Culture Collection, ATCC Cat. #CRL-5822) in the flank. Animals were weighed twice weekly during the study and examined frequently.
Tumor size was monitored twice weekly and then daily as the neoplasms reached the target weight range (about 75 mg). Animals were pair-matched when tumors were in the 62 to 126 mg range (group mean tumor size: 70 to 74 mg). Estimated tumor weight was calculated using the formula: […]
A test compound was orally administered daily in the test treatment group after the tumor reached the target weight. For treatment group 1, the test compound was administered once daily for 35 days. For treatment group 2, the test compound was administered once daily for 30 days. For treatment group 3, each dose of test compound was administered once daily for 30 days. For treatment group 4, each dose of test compound was administered once daily for 36 days. For treatment group 5-10, the test compound was administered once daily for 30 days.
Tumor weight was measured daily for subjects (n=8) in the test group and the matched subjects (n=8) in the vehicle-treated group.
The tumor growth inhibition (in percent) was calculated on the last day of the study using the formula: […]
as §9

T1 sequence (P04626 679-1255): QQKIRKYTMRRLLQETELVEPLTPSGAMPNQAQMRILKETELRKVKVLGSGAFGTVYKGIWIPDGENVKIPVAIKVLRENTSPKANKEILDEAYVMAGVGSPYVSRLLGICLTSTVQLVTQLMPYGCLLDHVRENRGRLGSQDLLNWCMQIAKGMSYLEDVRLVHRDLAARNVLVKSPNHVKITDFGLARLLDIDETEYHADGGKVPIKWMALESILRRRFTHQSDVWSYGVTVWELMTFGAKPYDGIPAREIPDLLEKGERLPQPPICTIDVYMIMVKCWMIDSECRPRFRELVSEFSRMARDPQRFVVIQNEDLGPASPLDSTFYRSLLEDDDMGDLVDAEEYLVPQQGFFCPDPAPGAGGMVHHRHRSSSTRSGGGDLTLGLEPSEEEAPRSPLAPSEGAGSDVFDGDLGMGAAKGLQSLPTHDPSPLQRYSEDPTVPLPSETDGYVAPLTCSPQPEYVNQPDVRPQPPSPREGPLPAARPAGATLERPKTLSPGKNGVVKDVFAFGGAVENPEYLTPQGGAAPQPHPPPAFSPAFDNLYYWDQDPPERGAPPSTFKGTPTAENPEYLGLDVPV
T2 sequence (P00533 669-1210 limits assumed): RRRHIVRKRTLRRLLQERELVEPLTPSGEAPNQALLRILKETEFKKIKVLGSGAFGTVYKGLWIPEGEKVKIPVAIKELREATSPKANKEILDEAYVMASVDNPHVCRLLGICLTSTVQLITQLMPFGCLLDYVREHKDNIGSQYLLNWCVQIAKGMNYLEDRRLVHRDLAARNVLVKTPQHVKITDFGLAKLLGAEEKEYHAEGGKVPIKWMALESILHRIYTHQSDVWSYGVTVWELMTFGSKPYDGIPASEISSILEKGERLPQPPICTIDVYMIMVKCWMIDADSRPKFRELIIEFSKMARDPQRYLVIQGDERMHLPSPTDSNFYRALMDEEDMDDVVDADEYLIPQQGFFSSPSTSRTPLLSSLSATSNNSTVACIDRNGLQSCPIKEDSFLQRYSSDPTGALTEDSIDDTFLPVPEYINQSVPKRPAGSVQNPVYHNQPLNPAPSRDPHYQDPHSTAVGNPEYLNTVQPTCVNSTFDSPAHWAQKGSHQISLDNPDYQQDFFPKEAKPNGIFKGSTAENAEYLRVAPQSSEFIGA

As for `Nc1ncnc(Nc2ccc(OCc3cccc(F)c3)c(Cl)c2)c1/C=N/OCCN1CCOCC1` [Cpd 93, (5E)-4-amino-6-[3-chloro-4-(3-fluoro-benzyloxy)-phenylamino]-pyrimidine-5-carbaldehyde O-(2-morpholin-4-yl-ethyl)-oxime], the IC50 in assay [1] came out at 600 nM; in the assay with MCF-7 breast carcinoma, 100000 nM; at HER-2 it was 8 nM; with BT474 breast carcinoma, 40 nM; in assay [2] it was 100000 nM; in the assay with SKBR3 breast carcinoma it was 20 nM. Also, the 50% inhibitory concentration (IC50) at EGFR was determined as 20 nM; in assay [3], 22100 nM; in assay [4], 70 nM. In assay [5], the “A431 Tumor Growth Inhibition TGI” value was 64.0%. For the same molecule, the “N87 Tumor Growth Inhibition TGI” value in [6] is given as 59.9%.
Take `Nc1ncnc(Nc2ccc(OCc3cccc(F)c3)c(Cl)c2)c1/C=N/OCCN1CCCCC1` [Cpd 94, (5E)-4-amino-6-[3-chloro-4-(3-fluoro-benzyloxy)-phenylamino]-pyrimidine-5-carbaldehyde O-(2-piperidin-1-yl-ethyl)-oxime]: the IC50 with MCF-7 breast carcinoma was determined as 1000 nM; on HER-2, 40 nM; with BT474 breast carcinoma, 500 nM; in assay [2], 1000 nM; in the assay on SKBR3 breast carcinoma, 500 nM; against EGFR, 20 nM. Also, the IC50 in assay [3] came out at 6100 nM; in [4], 400 nM. The “A431 Tumor Growth Inhibition TGI” value in assay [5] was 66%. Moreover, the “N87 Tumor Growth Inhibition TGI” value in assay [6] worked out at 47.1%.
With `Nc1ncnc(Nc2ccc3c(ccn3Cc3cccc(F)c3)c2)c1/C=N/OCCN1CCOCC1` [Cpd 101, (5E)-4-amino-6-[1-(3-fluoro-benzyl)-1H-indol-5-ylamino]-pyrimidine-5-carbaldehyde O-(2-morpholin-4-yl-ethyl)-oxime], the 50% inhibitory concentration (IC50) stood at 9 nM in assay [1]; 60 nM at HER-2; 50 nM in the assay with BT474 breast carcinoma; 60 nM with SKBR3 breast carcinoma; 25100 nM in assay [3]; 30 nM in [4]. Also, in assay [5], the “A431 Tumor Growth Inhibition TGI” value was determined as 51%. The “N87 Tumor Growth Inhibition TGI” value in assay [6] is on record as 66%.
